One assay deals with T1, COX-1 (Homo sapiens, UniProt P23219).
T1 construct: from tissue; host or cells: fresh heparinized human whole blood from healthy volunteers
Description: COX-1 activity in human whole blood (TXB2, calcium ionophore A23187). In kind it is cell-based. Conditions: 24 h at 37° C., A23187 25 μM, TXB2 by ELISA. As to the method: (§1) COX-1 and COX-2 Activities in Human Whole Blood
Fresh blood from healthy volunteers who had not taken any non-steroidal anti-inflammatory drugs for at least 7 days prior to blood extraction was collected in heparinized tubes (20 units of heparin per ml). For the COX-1 activity determination, 500 μl aliquots of blood were incubated with either 5 μl vehicle (dimethylsulphoxide) or 5 μl of a test compound solution for 24 h at 37° C. Calcium ionophore A23187 (25 μM) was added 20 min before the incubation was ended. Plasma was separated by centrifugation (10 min at 13000 rpm) and kept at −30° C. until TXB2 levels were measured using an enzyme immunoassay kit (ELISA).
The effect of the compounds was evaluated by incubating each compound at five to six different concentrations with triplicate determinations. IC50 values were obtained by non-linear regression using InPlot, GraphPad software on an IBM computer.

A further assay has as its target T2, COX-2 (Homo sapiens, UniProt P35354).
T2 construct: blood were incubated in the presence of LPS (10 μg/ml) for 24 h at 37° C. in order to induce the COX-2 expression; from tissue; host or cells: fresh heparinized human whole blood from healthy volunteers, LPS-stimulated
T2 sequence (P35354 18-604): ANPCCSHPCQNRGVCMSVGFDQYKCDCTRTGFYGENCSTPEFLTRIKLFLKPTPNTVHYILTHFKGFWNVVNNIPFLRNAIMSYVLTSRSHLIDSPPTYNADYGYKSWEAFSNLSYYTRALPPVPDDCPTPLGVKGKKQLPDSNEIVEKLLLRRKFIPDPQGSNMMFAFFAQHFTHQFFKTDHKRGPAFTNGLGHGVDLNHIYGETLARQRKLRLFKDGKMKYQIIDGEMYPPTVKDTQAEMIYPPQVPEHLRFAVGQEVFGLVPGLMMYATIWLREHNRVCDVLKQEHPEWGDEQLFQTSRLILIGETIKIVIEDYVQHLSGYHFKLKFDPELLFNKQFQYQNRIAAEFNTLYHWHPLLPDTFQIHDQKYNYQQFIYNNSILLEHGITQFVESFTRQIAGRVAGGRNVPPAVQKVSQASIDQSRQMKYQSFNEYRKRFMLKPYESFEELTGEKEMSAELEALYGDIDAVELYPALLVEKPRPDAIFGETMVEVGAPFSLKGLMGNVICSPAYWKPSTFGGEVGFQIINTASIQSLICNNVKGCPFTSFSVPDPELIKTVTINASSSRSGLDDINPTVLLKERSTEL
Description: COX-2 activity in human whole blood (PGE2, LPS-induced). Conditions: for IC50: human whole blood, LPS 10 μg/ml, 24 h at 37° C., PGE2 by ELISA; for Ratio COX-1/COX-2: ratio of human whole blood IC50 values. It counts as cell-based. As to the method: as §1
For the COX-2 activity determination, 500 μl aliquots of blood were incubated in the presence of LPS (10 μg/ml) for 24 h at 37° C. in order to induce the COX-2 expression (Patriagnani et al., J. Pharm. Exper. Ther. 271; 1705-1712 (1994)). Plasma was separated by centrifugation (10 min at 13000 rpm) and kept at −30° C. until PGE2 levels were measured using an enzyme immunoassay kit (ELISA). The effects of inhibitors were studied by incubating each compound (5 μl aliquots) at five to six different concentrations with triplicate determinations in the presence of LPS for 24 hours. IC50 values were obtained by non-linear regression using InPlot, GraphPad software on an IBM computer.
In general terms: In an ELISA, binding on a coated surface is turned into a signal by an enzyme label.

The text below walks through data of patent publication US20060189684A1, “3-Phenylfuran-2-one derivatives as cox-2 inhibitor” (priority 2003, published 2006).

T1 sequence (P23219 24-599): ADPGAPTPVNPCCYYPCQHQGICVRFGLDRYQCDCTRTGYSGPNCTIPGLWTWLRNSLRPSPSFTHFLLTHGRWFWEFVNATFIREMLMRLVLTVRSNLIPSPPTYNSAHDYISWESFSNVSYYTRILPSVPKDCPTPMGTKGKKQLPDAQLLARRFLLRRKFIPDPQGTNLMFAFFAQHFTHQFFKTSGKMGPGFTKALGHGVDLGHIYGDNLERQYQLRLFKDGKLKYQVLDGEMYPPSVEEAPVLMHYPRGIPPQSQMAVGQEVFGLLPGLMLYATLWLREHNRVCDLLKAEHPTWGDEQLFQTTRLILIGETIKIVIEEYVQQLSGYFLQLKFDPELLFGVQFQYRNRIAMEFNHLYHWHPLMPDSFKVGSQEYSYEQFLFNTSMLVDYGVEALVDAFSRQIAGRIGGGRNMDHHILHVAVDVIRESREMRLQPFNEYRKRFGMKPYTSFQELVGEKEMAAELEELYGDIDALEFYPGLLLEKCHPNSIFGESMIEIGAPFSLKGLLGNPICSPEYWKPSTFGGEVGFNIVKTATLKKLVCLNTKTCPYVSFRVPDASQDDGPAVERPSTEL

As to `C[S+]([O-])c1ccc(C2=C(c3ccccc3)C(=O)OC2)cc1` (racemic) [4-[4(methylsulfinyl)phenyl]-3-phenylfuran-2(5H)-one (racemate), 4-[4-(Methylsulfinyl)phenyl)-3-phenylfuran-2(6H)-one], at COX-1, the IC50 was 33.4 µM.
As for `C[S@@+]([O-])c1ccc(C2=C(c3ccccc3)C(=O)OC2)cc1` [4-[4(methylsulfinyl)phenyl]-3-phenylfuran-2(5H)-one (Enantiomer 1a)], the IC50 on COX-2 was 4.22 µM; on COX-1 it was 32.2 µM. Also, the “Ratio COX-1/COX-2” value at COX-2 was 7.6.
With `C[S@+]([O-])c1ccc(C2=C(c3ccccc3)C(=O)OC2)cc1` [4-[4(methylsulfinyl)phenyl]-3-phenylfuran-2(5H)-one (Enantiomer 1b)], the IC50 on COX-2 stood at 2.1 µM; on COX-1, 37.8 µM. The “Ratio COX-1/COX-2” value at COX-2 was 18.

Usually IC50 stands for the concentration that gives 50% inhibition.
